In publication PMC11604427 (Frontiers in Pharmacology, 2024):

Key:
PLK3 = target: T1, PLK3 (Homo sapiens, UniProt Q9H4B4); test: SelectScreen kinase selectivity assay; format: biochemical
T1 construct: purchased Thermo Fisher Scientific (SelectScreen service)
Method: (§1) The kinase selectivity analysis of PKHD-5 was performed using the SelectScreen kinase analysis service provided by Thermo Fisher Scientific. The experiment initially involved the preparation of a series of inhibitor solutions at varying concentrations, which were then reacted with various kinase targets under standardized conditions to calculate the percentage inhibition for each test solution. Ultimately, the IC50 values were calculated based on the concentration-inhibition curves by fitting a four-parameter logistic curve, thereby assessing the potency and selectivity of the inhibitors. The analysis results are detailed in Supplementary Table S1.

EPHA8 = target: T2, EPHA8 (Homo sapiens, UniProt P29322); test: SelectScreen kinase selectivity assay; format: biochemical
T2 construct: purchased Thermo Fisher Scientific (SelectScreen service)
T2 sequence (P29322 28-1005): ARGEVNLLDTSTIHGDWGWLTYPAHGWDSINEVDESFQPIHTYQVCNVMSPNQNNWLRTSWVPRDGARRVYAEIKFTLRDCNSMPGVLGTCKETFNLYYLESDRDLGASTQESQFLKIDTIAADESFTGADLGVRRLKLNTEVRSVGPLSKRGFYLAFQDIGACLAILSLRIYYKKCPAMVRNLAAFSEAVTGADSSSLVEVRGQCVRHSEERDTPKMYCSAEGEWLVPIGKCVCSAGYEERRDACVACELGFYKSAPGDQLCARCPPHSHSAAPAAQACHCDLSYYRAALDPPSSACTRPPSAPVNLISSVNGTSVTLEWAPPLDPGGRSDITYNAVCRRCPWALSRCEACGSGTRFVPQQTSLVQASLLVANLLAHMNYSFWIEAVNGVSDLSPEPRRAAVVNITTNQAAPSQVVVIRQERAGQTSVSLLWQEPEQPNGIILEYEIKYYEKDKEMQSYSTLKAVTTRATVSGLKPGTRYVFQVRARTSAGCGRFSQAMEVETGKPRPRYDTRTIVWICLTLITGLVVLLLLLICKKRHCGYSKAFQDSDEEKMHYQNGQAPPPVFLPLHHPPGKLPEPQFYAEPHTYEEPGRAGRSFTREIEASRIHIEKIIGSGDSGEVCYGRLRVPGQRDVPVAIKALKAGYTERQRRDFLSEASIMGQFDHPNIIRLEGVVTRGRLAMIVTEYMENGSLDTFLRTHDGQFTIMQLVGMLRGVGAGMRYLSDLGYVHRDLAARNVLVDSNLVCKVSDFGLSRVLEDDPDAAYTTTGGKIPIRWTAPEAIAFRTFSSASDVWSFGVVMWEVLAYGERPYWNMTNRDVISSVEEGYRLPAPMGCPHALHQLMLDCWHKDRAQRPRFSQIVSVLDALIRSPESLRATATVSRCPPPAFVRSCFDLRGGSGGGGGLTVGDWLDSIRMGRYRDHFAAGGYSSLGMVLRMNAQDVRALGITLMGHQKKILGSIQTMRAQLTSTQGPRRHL
Method: as §1

NTRK2 = target: T3, NTRK2 (Homo sapiens, UniProt Q16620); test: SelectScreen kinase selectivity assay; format: biochemical
T3 construct: purchased Thermo Fisher Scientific (SelectScreen service)
Method: as §1

BLK = target: T4, BLK (Homo sapiens, UniProt P51451); test: SelectScreen kinase selectivity assay; format: biochemical
T4 construct: purchased Thermo Fisher Scientific (SelectScreen service)
Method: as §1

FGFR4 = target: T5, FGFR4 (Homo sapiens, UniProt P22455); test: SelectScreen kinase selectivity assay; format: biochemical
T5 construct: purchased Thermo Fisher Scientific (SelectScreen service)
Method: as §1

FGR = target: T6, FGR (Homo sapiens, UniProt P09769); test: SelectScreen kinase selectivity assay; format: biochemical
T6 construct: purchased Thermo Fisher Scientific (SelectScreen service)
Method: as §1

EPHB1 = target: T7, EPHB1 (Homo sapiens, UniProt P54762); test: SelectScreen kinase selectivity assay; format: biochemical
T7 construct: purchased Thermo Fisher Scientific (SelectScreen service)
Method: as §1

FGFR2 = target: T8, FGFR2 (Homo sapiens, UniProt P21802); test: SelectScreen kinase selectivity assay; format: biochemical
T8 construct: purchased Thermo Fisher Scientific (SelectScreen service)
Method: as §1

CSF1R = target: T9, CSF1R (Homo sapiens, UniProt P07333); test: SelectScreen kinase selectivity assay; format: biochemical
T9 construct: purchased Thermo Fisher Scientific (SelectScreen service)
T9 sequence (P07333 20-972): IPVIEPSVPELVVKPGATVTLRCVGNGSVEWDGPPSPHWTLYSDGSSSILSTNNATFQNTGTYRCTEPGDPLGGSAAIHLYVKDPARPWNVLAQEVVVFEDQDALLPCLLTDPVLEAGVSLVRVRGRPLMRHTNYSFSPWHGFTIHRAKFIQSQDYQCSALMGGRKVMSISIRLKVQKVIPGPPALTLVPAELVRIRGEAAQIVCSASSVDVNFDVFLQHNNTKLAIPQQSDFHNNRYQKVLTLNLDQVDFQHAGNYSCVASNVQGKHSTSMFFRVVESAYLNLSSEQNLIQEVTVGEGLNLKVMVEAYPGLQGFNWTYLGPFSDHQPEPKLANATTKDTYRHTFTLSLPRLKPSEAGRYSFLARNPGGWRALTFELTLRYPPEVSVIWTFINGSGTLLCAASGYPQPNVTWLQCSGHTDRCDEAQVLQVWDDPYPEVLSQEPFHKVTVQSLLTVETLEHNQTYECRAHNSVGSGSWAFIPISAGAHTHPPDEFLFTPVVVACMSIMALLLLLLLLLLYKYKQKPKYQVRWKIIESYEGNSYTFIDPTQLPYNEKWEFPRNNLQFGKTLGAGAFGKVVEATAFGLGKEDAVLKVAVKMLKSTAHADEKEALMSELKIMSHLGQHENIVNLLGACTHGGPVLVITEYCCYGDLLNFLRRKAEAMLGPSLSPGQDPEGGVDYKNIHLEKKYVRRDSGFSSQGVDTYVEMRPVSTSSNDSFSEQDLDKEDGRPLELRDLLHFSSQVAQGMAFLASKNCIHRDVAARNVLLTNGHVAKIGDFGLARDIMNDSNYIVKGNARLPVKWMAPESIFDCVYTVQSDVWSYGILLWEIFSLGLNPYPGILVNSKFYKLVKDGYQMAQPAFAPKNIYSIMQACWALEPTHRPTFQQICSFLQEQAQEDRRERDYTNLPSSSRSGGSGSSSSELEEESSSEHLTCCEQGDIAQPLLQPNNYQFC
Method: as §1

PLK2 = target: T10, PLK2 (Homo sapiens, UniProt Q9NYY3); test: SelectScreen kinase selectivity assay; format: biochemical
T10 construct: purchased Thermo Fisher Scientific (SelectScreen service)
Method: as §1

EPHA6 = target: T11, EPHA6 (Homo sapiens, UniProt Q9UF33); test: SelectScreen kinase selectivity assay; format: biochemical
T11 construct: purchased Thermo Fisher Scientific (SelectScreen service)
Method: as §1

FYN = target: T12, FYN (Homo sapiens, UniProt P06241); test: SelectScreen kinase selectivity assay; format: biochemical
T12 construct: purchased Thermo Fisher Scientific (SelectScreen service)
T12 sequence (P06241 whole entry): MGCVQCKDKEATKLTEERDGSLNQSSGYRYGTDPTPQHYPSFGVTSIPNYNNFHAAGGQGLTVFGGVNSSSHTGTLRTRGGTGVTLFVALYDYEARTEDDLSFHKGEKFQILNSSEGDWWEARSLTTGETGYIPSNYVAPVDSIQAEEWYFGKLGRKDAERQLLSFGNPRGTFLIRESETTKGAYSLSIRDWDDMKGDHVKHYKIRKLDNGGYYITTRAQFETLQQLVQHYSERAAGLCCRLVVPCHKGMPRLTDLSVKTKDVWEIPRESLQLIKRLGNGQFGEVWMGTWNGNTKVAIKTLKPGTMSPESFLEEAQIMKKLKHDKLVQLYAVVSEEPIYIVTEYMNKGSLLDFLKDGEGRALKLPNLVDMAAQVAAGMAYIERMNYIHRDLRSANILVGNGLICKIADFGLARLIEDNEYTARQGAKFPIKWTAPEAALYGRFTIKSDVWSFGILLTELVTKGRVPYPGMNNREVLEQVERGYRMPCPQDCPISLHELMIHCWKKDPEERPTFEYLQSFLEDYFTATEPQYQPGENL
Method: as §1

PTK2 = target: T13, PTK2 (Homo sapiens, UniProt Q05397); test: SelectScreen kinase selectivity assay; format: biochemical
T13 construct: purchased Thermo Fisher Scientific (SelectScreen service)
Method: as §1

ZAP70 = target: T14, ZAP70 (Homo sapiens, UniProt P43403); test: SelectScreen kinase selectivity assay; format: biochemical
T14 construct: purchased Thermo Fisher Scientific (SelectScreen service)
Method: as §1

YES1 = target: T15, YES1 (Homo sapiens, UniProt P07947); test: SelectScreen kinase selectivity assay; format: biochemical
T15 construct: purchased Thermo Fisher Scientific (SelectScreen service)
Method: as §1

DDR2 = target: T16, DDR2 (Homo sapiens, UniProt Q16832); test: SelectScreen kinase selectivity assay; format: biochemical
T16 construct: purchased Thermo Fisher Scientific (SelectScreen service)
Method: as §1

MUSK = target: T17, MUSK (Homo sapiens, UniProt O15146); test: SelectScreen kinase selectivity assay; format: biochemical
T17 construct: purchased Thermo Fisher Scientific (SelectScreen service)
Method: as §1

JAK3 = target: T18, JAK3 (Homo sapiens, UniProt P52333); test: SelectScreen kinase selectivity assay; format: biochemical
T18 construct: purchased Thermo Fisher Scientific (SelectScreen service)
T18 sequence (P52333 whole entry): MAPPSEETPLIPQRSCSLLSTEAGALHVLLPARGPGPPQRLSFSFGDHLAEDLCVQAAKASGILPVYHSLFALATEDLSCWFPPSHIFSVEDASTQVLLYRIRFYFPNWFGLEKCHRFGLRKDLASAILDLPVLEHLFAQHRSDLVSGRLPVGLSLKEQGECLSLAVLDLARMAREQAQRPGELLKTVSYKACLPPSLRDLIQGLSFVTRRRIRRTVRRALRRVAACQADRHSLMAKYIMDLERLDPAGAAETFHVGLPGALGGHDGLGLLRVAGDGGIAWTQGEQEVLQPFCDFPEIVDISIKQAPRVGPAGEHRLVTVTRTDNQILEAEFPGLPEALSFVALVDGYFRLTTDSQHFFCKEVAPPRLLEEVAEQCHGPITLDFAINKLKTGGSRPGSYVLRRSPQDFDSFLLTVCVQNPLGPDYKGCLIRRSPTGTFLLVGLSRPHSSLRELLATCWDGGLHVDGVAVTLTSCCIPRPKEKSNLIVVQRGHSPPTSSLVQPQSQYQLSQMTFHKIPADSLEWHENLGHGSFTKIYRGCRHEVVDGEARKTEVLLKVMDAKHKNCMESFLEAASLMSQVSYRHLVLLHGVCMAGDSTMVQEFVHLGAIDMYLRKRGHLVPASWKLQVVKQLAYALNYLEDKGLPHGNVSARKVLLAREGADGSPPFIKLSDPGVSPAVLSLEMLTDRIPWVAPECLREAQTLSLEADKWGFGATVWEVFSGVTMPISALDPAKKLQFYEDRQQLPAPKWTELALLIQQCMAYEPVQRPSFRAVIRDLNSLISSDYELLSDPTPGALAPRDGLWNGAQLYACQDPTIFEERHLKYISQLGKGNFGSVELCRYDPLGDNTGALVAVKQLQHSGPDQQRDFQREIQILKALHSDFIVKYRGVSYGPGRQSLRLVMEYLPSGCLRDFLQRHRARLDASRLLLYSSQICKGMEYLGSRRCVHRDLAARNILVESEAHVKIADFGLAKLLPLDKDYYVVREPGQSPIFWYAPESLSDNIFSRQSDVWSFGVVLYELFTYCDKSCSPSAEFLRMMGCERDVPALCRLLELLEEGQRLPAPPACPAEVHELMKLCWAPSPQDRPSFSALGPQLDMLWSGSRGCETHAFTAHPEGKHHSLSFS
Method: as §1

DDR1 = target: T19, DDR1 (Homo sapiens, UniProt Q08345); test: SelectScreen kinase selectivity assay; format: biochemical
T19 construct: purchased Thermo Fisher Scientific (SelectScreen service)
Method: as §1

ZAK = target: T20, ZAK (Homo sapiens, UniProt Q9NYL2); test: SelectScreen kinase selectivity assay; format: biochemical
T20 construct: purchased Thermo Fisher Scientific (SelectScreen service)
Method: as §1

EPHA7 = target: T21, EPHA7 (Homo sapiens, UniProt Q15375); test: SelectScreen kinase selectivity assay; format: biochemical
T21 construct: purchased Thermo Fisher Scientific (SelectScreen service)
Method: as §1

FGFR1 = target: T22, FGFR1 (Homo sapiens, UniProt P11362); test: SelectScreen kinase selectivity assay; format: biochemical
T22 construct: purchased Thermo Fisher Scientific (SelectScreen service)
T22 sequence (P11362 22-822): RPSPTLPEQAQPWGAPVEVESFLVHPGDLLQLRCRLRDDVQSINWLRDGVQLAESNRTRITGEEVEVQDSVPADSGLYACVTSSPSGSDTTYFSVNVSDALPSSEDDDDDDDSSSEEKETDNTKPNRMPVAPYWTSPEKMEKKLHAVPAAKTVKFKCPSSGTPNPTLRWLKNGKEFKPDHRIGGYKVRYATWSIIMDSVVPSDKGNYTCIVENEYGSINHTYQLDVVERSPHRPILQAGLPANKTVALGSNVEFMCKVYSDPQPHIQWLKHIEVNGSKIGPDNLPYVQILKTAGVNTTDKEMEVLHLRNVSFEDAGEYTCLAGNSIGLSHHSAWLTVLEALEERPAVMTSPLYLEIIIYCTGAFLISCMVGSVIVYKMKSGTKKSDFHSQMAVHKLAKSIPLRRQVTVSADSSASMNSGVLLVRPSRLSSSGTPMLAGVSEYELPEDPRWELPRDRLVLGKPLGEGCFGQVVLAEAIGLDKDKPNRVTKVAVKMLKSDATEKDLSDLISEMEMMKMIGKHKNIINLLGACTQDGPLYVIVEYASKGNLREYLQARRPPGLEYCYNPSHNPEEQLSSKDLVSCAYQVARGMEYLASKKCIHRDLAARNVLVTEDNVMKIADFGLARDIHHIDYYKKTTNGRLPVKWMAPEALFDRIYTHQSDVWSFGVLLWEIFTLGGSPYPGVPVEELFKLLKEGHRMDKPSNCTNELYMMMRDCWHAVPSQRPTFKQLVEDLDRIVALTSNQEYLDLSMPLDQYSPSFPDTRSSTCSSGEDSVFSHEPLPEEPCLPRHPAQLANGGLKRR
Method: as §1

BTK = target: T23, BTK (Homo sapiens, UniProt Q06187); test: SelectScreen kinase selectivity assay; format: biochemical
T23 construct: purchased Thermo Fisher Scientific (SelectScreen service)
Method: as §1

BMX = target: T24, BMX (Homo sapiens, UniProt P51813); test: SelectScreen kinase selectivity assay; format: biochemical
T24 construct: purchased Thermo Fisher Scientific (SelectScreen service)
Method: as §1

ERBB2 = target: T25, ERBB2 (Homo sapiens, UniProt P04626); test: SelectScreen kinase selectivity assay; format: biochemical
T25 construct: purchased Thermo Fisher Scientific (SelectScreen service)
Method: as §1

KIT = target: T26, KIT (Homo sapiens, UniProt P10721); test: SelectScreen kinase selectivity assay; format: biochemical
T26 construct: purchased Thermo Fisher Scientific (SelectScreen service)
Method: as §1

NTRK3 = target: T27, NTRK3 (Homo sapiens, UniProt Q16288); test: SelectScreen kinase selectivity assay; format: biochemical
T27 construct: purchased Thermo Fisher Scientific (SelectScreen service)
Method: as §1

SNU449 = test: MTT assay; format: cell-based; conditions: Homo sapiens, SNU-449, SNU449, 48 h, read-out: IC50 (μM) ± SD SNU449
Method: (§2) Cells at a density of 4×10^3 cells/well were inoculated into 96-well plates for overnight culture at 37°C. […] Then, 100 μL of a 0.5 mg/mL MTT solution was pipetted into each well, and the incubation was prolonged for 4 h, resulting in the formation of a purple precipitate. Afterward, 200 μL of DMSO was added to each well, and the plate was vortexed for 10 min. The absorbance at 570 nm was determined with a Synergy 4 microplate reader (BioTek, United States). Each experiment was performed three times under the same conditions.

Hep3B = test: MTT assay; format: cell-based; conditions: Homo sapiens, 48 h, read-out: IC50 (μM) ± SD Hep3B
Method: as §2

Huh7 = test: MTT assay; format: cell-based; conditions: Homo sapiens, Huh-7, Huh7, 48 h, read-out: IC50 (μM) ± SD Huh7
Method: as §2

[1] = tested on: normal human liver cell line L02; test: MTT assay; format: cell-based; conditions: normal liver cell line L02, 48 h
Method: as §2

HCC cell lines = test: MTT assay, all HCC cell lines; format: cell-based; conditions: Homo sapiens, range over HepG2, Hep3B, Huh7, SNU449, HepG2/MDR, 48 h, read-out: IC50 values against all HCC cell lines
Method: The MTT assay was conducted to evaluate the inhibitory impact of PKHD-5 on HCC cells, HepG2/ADR cells, and normal liver cells ([Ding et al., 2020]). Cells at a density of 4×10^3 cells/well were inoculated into 96-well plates for overnight culture at 37°C. The cells were treated with varying concentrations of the test compounds and incubated for 48 h. Then, 100 μL of a 0.5 mg/mL MTT solution was pipetted into each well, and the incubation was prolonged for 4 h, resulting in the formation of a purple precipitate. Afterward, 200 μL of DMSO was added to each well, and the plate was vortexed for 10 min. The absorbance at 570 nm was determined with a Synergy 4 microplate reader (BioTek, United States). Each experiment was performed three times under the same conditions.

T1 sequence (Q9H4B4 whole entry): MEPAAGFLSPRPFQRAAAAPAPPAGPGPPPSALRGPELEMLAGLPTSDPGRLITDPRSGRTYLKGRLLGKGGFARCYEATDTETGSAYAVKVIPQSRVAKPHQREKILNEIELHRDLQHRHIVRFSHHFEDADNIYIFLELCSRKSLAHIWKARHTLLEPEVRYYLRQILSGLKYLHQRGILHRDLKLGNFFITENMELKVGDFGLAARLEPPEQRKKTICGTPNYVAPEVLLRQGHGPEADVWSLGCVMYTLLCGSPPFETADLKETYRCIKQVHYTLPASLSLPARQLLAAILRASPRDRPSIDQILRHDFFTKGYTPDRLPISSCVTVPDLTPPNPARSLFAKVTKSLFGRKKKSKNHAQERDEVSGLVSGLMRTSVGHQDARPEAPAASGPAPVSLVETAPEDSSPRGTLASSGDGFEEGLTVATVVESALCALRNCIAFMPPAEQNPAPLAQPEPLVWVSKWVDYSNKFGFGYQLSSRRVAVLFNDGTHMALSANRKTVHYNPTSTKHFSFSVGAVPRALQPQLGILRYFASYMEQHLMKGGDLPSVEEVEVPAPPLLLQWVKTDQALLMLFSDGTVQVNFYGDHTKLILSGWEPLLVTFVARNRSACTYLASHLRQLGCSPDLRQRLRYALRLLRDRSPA

Cc1ccc(O)c(C)c1-n1c(N)c(C(N)=O)c2cc(CCCCCC(=O)NO)c(C)nc21 [PKHD-5]
IC50 (PLK3): > 50 µM | IC50 (EPHA8): > 50 µM | IC50 (NTRK2): > 50 µM | IC50 (BLK): > 50 µM | IC50 (FGFR4): > 50 µM | IC50 (FGR): > 50 µM | IC50 (EPHB1): > 50 µM | IC50 (FGFR2): > 50 µM | IC50 (CSF1R): > 50 µM | IC50 (PLK2): > 50 µM | IC50 (EPHA6): > 50 µM | IC50 (FYN): > 50 µM | IC50 (PTK2): > 50 µM | IC50 (ZAP70): > 50 µM | IC50 (YES1): > 50 µM | IC50 (DDR2): > 50 µM | IC50 (MUSK): > 50 µM | IC50 (JAK3): > 50 µM | IC50 (DDR1): > 50 µM | IC50 (ZAK): > 50 µM | IC50 (EPHA7): > 50 µM | IC50 (FGFR1): > 50 µM | IC50 (BTK): > 50 µM | IC50 (BMX): > 50 µM | IC50 (ERBB2): > 50 µM | IC50 (KIT): > 50 µM | IC50 (NTRK3): > 50 µM | IC50 (SNU449): 0.59 ± 0.06 µM | IC50 (Hep3B): 0.38 ± 0.05 µM | IC50 (Huh7): 0.47 ± 0.04 µM | IC50 [1]: > 100 µM | IC50 (HCC cell lines): 0.19 to 0.92 µM
